Measurements from the kinase profiling compilation of Christmann-Franck et al. (2016).
Where “and” joins values, the source holds several entries; their conditions need not be identical. Equal values may be shown once.

Columns and labels:
Assay in all cases: KINOMEscan competition binding
Details in all cases: compound 10.0 µM
AKT2 (human) = AKT2 (human) (UniProt P31751)
ANKK1 (human) = ANKK1 (human) (UniProt Q8NFD2)
BRSK2 (human) = BRSK2 (human) (UniProt Q8IWQ3)
CAMK2G (human) = CAMK2G (human) (UniProt Q13555)
CAMKK2 (human) = CAMKK2 (human) (UniProt Q96RR4)
CDC42BPG (human) = CDC42BPG (human) (UniProt Q6DT37)
CDK17 (human) = CDK17 (human) (UniProt Q00537)
CSNK1G1 (human) = CSNK1G1 (human) (UniProt Q9HCP0)
DAPK1 (human) = DAPK1 (human) (UniProt P53355)
DMPK (human) = DMPK (human) (UniProt Q09013)
DYRK1A (human) = DYRK1A (human) (UniProt Q13627)
EPHA5 (human) = EPHA5 (human) (UniProt P54756)
ITK (human) = ITK (human) (UniProt Q08881)
KDR (human) = KDR (human) (UniProt P35968)
LATS1 (human) = LATS1 (human) (UniProt O95835)
MAP3K10 (human) = MAP3K10 (human) (UniProt Q02779)
MAP4K4 (human) = MAP4K4 (human) (UniProt O95819)
MELK (human) = MELK (human) (UniProt Q14680)
NEK2 (human) = NEK2 (human) (UniProt P51955)
NEK7 (human) = NEK7 (human) (UniProt Q8TDX7)
NEK9 (human) = NEK9 (human) (UniProt Q8TD19)
NTRK2 (human) = NTRK2 (human) (UniProt Q16620)
PAK3 (human) = PAK3 (human) (UniProt O75914)
PIK3C2B (human) = PIK3C2B (human) (UniProt O00750)
PIK3CA (human) = PIK3CA (human) (UniProt P42336)
PIP4K2B (human) = PIP4K2B (human) (UniProt P78356)
PLK3 (human) = PLK3 (human) (UniProt Q9H4B4)
PRKCQ (human) = PRKCQ (human) (UniProt Q04759)
PTK6 (human) = PTK6 (human) (UniProt Q13882)
RIOK2 (human) = RIOK2 (human) (UniProt Q9BVS4)
RPS6KA2 KD1 (human) = RPS6KA2 KD1 (human) (UniProt Q15349)
RPS6KA3 KD1 (human) = RPS6KA3 KD1 (human) (UniProt P51812)
RPS6KA4 KD1 (human) = RPS6KA4 KD1 (human) (UniProt O75676)
RPS6KA5 KD1 (human) = RPS6KA5 KD1 (human) (UniProt O75582)
STK4 (human) = STK4 (human) (UniProt Q13043)
TAOK1 (human) = TAOK1 (human) (UniProt Q7L7X3)
Sequence of TAOK1 (human) (Q7L7X3 whole entry, looked up): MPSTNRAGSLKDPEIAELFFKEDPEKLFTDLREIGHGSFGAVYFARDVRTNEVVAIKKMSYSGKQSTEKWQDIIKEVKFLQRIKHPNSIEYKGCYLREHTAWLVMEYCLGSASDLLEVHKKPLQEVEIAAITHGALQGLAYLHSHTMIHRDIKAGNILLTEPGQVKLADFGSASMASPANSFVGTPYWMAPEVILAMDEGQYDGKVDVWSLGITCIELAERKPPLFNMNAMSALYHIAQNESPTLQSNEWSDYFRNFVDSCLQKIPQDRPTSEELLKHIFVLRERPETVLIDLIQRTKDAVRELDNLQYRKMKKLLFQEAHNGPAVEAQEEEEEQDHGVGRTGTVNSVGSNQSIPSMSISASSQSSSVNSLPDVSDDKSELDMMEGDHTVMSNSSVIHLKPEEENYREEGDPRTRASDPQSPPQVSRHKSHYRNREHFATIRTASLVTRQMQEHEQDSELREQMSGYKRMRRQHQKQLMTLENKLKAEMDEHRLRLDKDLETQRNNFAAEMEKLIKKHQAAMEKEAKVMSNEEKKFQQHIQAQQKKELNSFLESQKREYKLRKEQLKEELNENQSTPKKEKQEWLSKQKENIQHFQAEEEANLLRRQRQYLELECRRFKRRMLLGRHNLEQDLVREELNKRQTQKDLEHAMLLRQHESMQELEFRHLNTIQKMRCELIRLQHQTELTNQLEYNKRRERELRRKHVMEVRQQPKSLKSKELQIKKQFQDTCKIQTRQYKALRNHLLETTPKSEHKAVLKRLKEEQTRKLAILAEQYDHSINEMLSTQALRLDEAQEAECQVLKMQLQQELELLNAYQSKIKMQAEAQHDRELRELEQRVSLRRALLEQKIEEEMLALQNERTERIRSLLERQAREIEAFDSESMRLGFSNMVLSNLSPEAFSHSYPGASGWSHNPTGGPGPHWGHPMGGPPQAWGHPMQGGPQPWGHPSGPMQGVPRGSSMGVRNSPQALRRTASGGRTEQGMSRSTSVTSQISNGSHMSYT

Sequence of MAP4K4 (human) (O95819 whole entry, looked up): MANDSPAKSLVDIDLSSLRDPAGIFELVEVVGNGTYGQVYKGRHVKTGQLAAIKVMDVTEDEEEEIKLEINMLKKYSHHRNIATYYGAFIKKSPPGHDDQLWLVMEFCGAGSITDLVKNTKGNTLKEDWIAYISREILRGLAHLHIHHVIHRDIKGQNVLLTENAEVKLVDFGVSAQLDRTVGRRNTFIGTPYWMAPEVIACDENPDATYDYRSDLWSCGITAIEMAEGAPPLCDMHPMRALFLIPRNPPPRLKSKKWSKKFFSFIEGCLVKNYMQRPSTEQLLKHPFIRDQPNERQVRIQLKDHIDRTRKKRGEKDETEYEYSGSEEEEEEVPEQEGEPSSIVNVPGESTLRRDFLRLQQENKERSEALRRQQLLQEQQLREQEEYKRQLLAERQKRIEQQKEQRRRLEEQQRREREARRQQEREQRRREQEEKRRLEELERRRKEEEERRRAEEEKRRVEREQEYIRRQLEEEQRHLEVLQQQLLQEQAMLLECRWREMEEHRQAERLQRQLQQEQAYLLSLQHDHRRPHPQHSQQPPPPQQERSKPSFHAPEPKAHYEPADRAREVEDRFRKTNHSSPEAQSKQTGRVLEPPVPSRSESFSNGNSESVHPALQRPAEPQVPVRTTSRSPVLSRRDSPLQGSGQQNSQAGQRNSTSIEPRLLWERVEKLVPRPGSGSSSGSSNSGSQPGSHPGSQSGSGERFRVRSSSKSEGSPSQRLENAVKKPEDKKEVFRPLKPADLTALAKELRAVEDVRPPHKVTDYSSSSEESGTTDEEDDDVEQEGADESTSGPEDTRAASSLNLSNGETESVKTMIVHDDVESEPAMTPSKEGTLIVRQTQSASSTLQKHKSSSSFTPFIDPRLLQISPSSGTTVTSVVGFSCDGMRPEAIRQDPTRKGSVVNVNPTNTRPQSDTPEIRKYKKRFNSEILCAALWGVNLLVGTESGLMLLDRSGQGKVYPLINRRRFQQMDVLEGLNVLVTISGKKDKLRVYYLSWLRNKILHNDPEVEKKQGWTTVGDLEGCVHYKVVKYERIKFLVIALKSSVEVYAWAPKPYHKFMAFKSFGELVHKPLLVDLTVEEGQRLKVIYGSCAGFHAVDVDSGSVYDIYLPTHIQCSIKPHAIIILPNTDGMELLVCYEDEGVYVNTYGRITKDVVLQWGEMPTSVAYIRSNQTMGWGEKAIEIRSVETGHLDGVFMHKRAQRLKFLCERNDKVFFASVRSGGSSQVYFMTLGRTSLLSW
Sequence of NTRK2 (human) (Q16620 whole entry, looked up): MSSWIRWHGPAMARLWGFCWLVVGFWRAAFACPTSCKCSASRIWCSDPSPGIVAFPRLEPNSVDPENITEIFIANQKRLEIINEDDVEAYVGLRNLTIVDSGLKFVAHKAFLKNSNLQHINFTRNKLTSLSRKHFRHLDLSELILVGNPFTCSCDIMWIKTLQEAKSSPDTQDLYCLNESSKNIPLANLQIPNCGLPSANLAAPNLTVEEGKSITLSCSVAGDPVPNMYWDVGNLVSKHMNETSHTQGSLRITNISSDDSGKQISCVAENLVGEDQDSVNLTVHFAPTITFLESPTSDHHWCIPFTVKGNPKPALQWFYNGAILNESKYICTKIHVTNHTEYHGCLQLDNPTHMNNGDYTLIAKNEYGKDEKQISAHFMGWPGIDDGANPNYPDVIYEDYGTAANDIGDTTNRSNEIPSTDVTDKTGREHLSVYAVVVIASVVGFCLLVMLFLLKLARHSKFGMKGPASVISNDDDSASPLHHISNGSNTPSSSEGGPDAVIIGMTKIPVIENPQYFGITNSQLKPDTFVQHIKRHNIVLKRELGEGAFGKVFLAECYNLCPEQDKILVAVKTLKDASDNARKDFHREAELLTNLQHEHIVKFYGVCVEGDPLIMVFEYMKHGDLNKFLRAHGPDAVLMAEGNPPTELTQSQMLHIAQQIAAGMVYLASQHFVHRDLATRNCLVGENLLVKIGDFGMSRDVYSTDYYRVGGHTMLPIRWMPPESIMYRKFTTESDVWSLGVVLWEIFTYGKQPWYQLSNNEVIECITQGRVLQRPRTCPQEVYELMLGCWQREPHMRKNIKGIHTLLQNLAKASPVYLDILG
Sequence of MAP3K10 (human) (Q02779 whole entry, looked up): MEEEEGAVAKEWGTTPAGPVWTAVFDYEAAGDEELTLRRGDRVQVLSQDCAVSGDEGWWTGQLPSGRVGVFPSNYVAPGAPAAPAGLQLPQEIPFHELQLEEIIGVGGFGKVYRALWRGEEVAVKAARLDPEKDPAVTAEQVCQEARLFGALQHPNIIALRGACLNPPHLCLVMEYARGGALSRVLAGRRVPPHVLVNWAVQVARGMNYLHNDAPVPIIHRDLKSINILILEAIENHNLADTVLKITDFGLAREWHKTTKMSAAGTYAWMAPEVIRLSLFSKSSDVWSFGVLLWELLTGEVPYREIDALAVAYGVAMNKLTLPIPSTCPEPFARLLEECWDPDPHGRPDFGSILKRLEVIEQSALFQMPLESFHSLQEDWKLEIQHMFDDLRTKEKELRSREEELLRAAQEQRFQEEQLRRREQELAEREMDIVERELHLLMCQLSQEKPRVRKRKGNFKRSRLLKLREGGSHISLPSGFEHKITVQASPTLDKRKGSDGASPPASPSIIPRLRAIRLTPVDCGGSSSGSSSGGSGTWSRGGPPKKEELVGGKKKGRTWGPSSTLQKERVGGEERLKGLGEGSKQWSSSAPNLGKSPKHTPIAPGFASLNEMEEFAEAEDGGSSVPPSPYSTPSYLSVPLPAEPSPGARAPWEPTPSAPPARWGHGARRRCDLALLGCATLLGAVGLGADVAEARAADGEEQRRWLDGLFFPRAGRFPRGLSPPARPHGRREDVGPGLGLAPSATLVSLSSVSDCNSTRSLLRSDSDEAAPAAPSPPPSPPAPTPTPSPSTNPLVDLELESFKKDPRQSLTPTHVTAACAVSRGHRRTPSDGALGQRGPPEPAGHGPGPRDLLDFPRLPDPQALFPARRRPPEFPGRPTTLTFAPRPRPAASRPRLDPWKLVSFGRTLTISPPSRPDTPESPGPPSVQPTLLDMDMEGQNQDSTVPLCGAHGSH
Sequence of CAMK2G (human) (Q13555 whole entry, looked up): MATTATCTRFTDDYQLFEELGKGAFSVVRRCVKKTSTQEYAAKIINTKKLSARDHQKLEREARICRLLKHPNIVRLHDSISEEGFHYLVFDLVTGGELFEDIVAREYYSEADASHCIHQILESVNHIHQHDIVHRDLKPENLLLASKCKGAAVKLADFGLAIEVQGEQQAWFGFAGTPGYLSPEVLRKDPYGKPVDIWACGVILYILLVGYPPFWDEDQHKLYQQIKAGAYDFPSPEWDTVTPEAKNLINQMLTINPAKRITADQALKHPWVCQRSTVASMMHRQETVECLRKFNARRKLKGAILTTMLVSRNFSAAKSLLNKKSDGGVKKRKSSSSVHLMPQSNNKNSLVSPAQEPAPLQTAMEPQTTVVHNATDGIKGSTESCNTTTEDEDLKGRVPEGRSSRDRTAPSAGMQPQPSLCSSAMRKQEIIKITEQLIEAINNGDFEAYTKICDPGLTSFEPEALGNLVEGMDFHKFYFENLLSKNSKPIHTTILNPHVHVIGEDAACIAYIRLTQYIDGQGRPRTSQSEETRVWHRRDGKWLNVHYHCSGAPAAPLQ
Sequence of PIP4K2B (human) (P78356 whole entry, looked up): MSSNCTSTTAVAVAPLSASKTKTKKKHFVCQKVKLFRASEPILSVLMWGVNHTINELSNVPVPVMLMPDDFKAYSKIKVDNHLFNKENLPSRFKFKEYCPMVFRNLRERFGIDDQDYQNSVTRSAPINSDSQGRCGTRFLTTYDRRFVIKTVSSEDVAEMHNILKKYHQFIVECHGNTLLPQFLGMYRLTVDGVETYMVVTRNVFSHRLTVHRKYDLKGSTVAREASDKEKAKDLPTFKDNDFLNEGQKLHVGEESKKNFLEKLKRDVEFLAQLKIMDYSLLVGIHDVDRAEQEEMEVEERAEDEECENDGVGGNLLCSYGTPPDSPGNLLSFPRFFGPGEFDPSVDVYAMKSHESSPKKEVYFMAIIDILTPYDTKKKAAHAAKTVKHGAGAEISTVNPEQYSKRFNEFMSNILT

| SMILES | kinase still bound, per cent of control (AKT2 (human)) [%] | kinase still bound, per cent of control (ANKK1 (human)) [%] | kinase still bound, per cent of control (BRSK2 (human)) [%] | kinase still bound, per cent of control (CAMK2G (human)) [%] | kinase still bound, per cent of control (CAMKK2 (human)) [%] | kinase still bound, per cent of control (CDC42BPG (human)) [%] | kinase still bound, per cent of control (CDK17 (human)) [%] | kinase still bound, per cent of control (CSNK1G1 (human)) [%] | kinase still bound, per cent of control (DAPK1 (human)) [%] | kinase still bound, per cent of control (DMPK (human)) [%] | kinase still bound, per cent of control (EPHA5 (human)) [%] | kinase still bound, per cent of control (ITK (human)) [%] | kinase still bound, per cent of control (KDR (human)) [%] | kinase still bound, per cent of control (LATS1 (human)) [%] | kinase still bound, per cent of control (MAP3K10 (human)) [%] | kinase still bound, per cent of control (MAP4K4 (human)) [%] | kinase still bound, per cent of control (MELK (human)) [%] | kinase still bound, per cent of control (NEK2 (human)) [%] | kinase still bound, per cent of control (NEK7 (human)) [%] | kinase still bound, per cent of control (NEK9 (human)) [%] | further results |
| --- | --- | --- | --- | --- | --- | --- | --- | --- | --- | --- | --- | --- | --- | --- | --- | --- | --- | --- | --- | --- | --- |
| COc1cc(N2CCN(C)CC2)ccc1Nc1ncc2c(n1)N(C)c1ccccc1C(=O)N2C | 100 | 100 | 100 | 31 | 15 | 100 | 100 | 100 | 100 | 100 | 100 | 100 | 100 | 100 | 100 | 100 | 100 | 100 | 100 | 100 | kinase still bound, per cent of control (DYRK1A (human)): 100%; kinase still bound, per cent of control (NTRK2 (human)): 100%; kinase still bound, per cent of control (PAK3 (human)): 100%; kinase still bound, per cent of control (PIK3C2B (human)): 100%; kinase still bound, per cent of control (PIK3CA (human)): 100%; kinase still bound, per cent of control (PIP4K2B (human)): 100%; kinase still bound, per cent of control (PLK3 (human)): 100%; kinase still bound, per cent of control (PRKCQ (human)): 100%; kinase still bound, per cent of control (PTK6 (human)): 7.6%; kinase still bound, per cent of control (RIOK2 (human)): 100%; kinase still bound, per cent of control (RPS6KA2 KD1 (human)): 100%; kinase still bound, per cent of control (RPS6KA3 KD1 (human)): 100%; kinase still bound, per cent of control (RPS6KA4 KD1 (human)): 100%; kinase still bound, per cent of control (RPS6KA5 KD1 (human)): 100%; kinase still bound, per cent of control (STK4 (human)): 100%; kinase still bound, per cent of control (TAOK1 (human)): 17% and 4.8% |
| C=CC(=O)Nc1ccc(CN(C(=O)Nc2c(Cl)c(OC)cc(OC)c2Cl)c2cc(Nc3ccc(N4CCN(C)CC4)cc3)ncn2)cc1 | 100 | 100 | 100 | 100 | 100 | 100 | 100 | 100 | 100 | 100 | 100 | 16 | 0.45 | 100 | 13 | 100 | 100 | 100 | 100 | 100 | kinase still bound, per cent of control (NTRK2 (human)): 100%; kinase still bound, per cent of control (PAK3 (human)): 100%; kinase still bound, per cent of control (PIK3C2B (human)): 100%; kinase still bound, per cent of control (PIK3CA (human)): 100%; kinase still bound, per cent of control (PIP4K2B (human)): 100%; kinase still bound, per cent of control (PLK3 (human)): 100%; kinase still bound, per cent of control (PRKCQ (human)): 100%; kinase still bound, per cent of control (PTK6 (human)): 100%; kinase still bound, per cent of control (RIOK2 (human)): 100%; kinase still bound, per cent of control (RPS6KA2 KD1 (human)): 100%; kinase still bound, per cent of control (RPS6KA3 KD1 (human)): 100%; kinase still bound, per cent of control (RPS6KA4 KD1 (human)): 100%; kinase still bound, per cent of control (RPS6KA5 KD1 (human)): 100%; kinase still bound, per cent of control (STK4 (human)): 100%; kinase still bound, per cent of control (TAOK1 (human)): 0.8% |
| CCN(CC)CCCCNc1ncc2c(n1)N(C)C(=O)N(c1c(Cl)c(OC)cc(OC)c1Cl)C2 | 100 | 100 | 100 | 100 | 100 | 100 | 100 | 100 | 100 | 100 | 100 | 100 | 100 | 100 | 100 | 100 | 100 | 100 | 100 | 100 | kinase still bound, per cent of control (DYRK1A (human)): 100%; kinase still bound, per cent of control (NTRK2 (human)): 100%; kinase still bound, per cent of control (PAK3 (human)): 100%; kinase still bound, per cent of control (PIK3C2B (human)): 100%; kinase still bound, per cent of control (PIK3CA (human)): 100%; kinase still bound, per cent of control (PIP4K2B (human)): 100%; kinase still bound, per cent of control (PLK3 (human)): 100%; kinase still bound, per cent of control (PRKCQ (human)): 100%; kinase still bound, per cent of control (PTK6 (human)): 100%; kinase still bound, per cent of control (RIOK2 (human)): 100%; kinase still bound, per cent of control (RPS6KA2 KD1 (human)): 100%; kinase still bound, per cent of control (RPS6KA3 KD1 (human)): 100%; kinase still bound, per cent of control (RPS6KA4 KD1 (human)): 100%; kinase still bound, per cent of control (RPS6KA5 KD1 (human)): 100%; kinase still bound, per cent of control (STK4 (human)): 100%; kinase still bound, per cent of control (TAOK1 (human)): 0.25% and 2.9% |
